Data as given in ChEMBL document CHEMBL5352497, “Aromatic hydrazides: A potential solution for Acinetobacter baumannii infections” (Eur J Med Chem, 2023).
Converted amounts (≈) assume the structure as drawn. The source made the active and inactive calls.

Experiments:
Bacillus anthracis = assay: Antibacterial activity against Bacillus anthracis Sterne F32; format: functional
Staphylococcus aureus = assay: Antibacterial activity against Staphylococcus aureus ATCC 25923; format: functional
[1] = test system: Staphylococcus epidermidis; assay: Antibacterial activity against Staphylococcus epidermidis ATCC 12228; format: functional
Escherichia coli = assay: Antibacterial activity against Escherichia coli MC1061; format: functional
Enterobacter cloacae = assay: Antibacterial activity against Enterobacter cloacae ATCC 13047; format: functional
Klebsiella pneumoniae = assay: Antibacterial activity against Klebsiella pneumoniae ATCC 27736; format: functional
Pseudomonas aeruginosa = assay: Antibacterial activity against Pseudomonas aeruginosa ATCC 27853; format: functional
Salmonella enterica = assay: Antibacterial activity against Salmonella enterica ATCC 14028; format: functional
Acinetobacter baumannii [2] = assay: Antibacterial activity against Acinetobacter baumannii ATCC 19606; format: functional
Acinetobacter baumannii [3] = assay: Antibacterial activity against Acinetobacter baumannii BAA1605; format: functional
Acinetobacter baumannii [4] = assay: Bactericidal activity against Acinetobacter baumannii ATCC 19606 assessed as reduction in colony forming unit at 1 to 4 times MIC measured after 24 hrs; format: functional, organism-based
Acinetobacter baumannii [5] = assay: Antibiofilm activity against Acinetobacter baumannii ATCC 19606 assessed as inhibition of biofilm formation at 0.5 ug/ml by crystal violet assay; format: functional; parameters: scale not given: the % may be the effect or the level left; settings: dose 0.5 µg/ml
HEK293 [6] = assay: Cytotoxicity against HEK293 cells at 8 ug/ml; format: toxicity, cell-based; settings: human, dose 8 µg/ml
HEK293 [7] = assay: Cytotoxicity against HEK293 cells at 32 ug/ml; format: toxicity, cell-based; settings: human, at 32 µg/mL
[8] = Hemolytic activity in mouse RBC at 8 ug/ml incubated for 1 hr; format: toxicity, cell-based, Erythrocyte; settings: red blood cells (erythrocytes), at 8 µg/mL, read-out: Activity
Erythrocyte = assay: (§1) Hemolytic activity in mouse RBC at 32 ug/ml incubated for 1 hr; format: toxicity, cell-based; settings: erythrocyte, 1 h, dose 32 µg/ml
Acinetobacter baumannii [9] = assay: Induction of resistance development in Acinetobacter baumannii ATCC 19606 assessed as fold increase in MIC measured after 15 passages; format: functional
[10] = as §1; format: toxicity, cell-based, Erythrocyte; settings: red blood cells (erythrocytes), at 32 µg/mL, read-out: Activity
Acinetobacter baumannii [11] = assay: Bacteriostatic activity against Acinetobacter baumannii ATCC 19606 assessed as reduction in colony forming unit incubated for 9 hrs; format: functional, organism-based
Acinetobacter baumannii [12] = assay: Bacteriostatic activity against Acinetobacter baumannii ATCC 19606 assessed as reduction in colony forming unit incubated for 24 hrs; format: functional, organism-based
Acinetobacter baumannii [13] = assay: microbe, parasite or virus in culture; settings: ATCC 19606

Structure (SMILES): O=C(NNc1ccc(Cl)cc1)c1ccc(F)cn1
- MIC (Bacillus anthracis): > 64 mg/L
- MIC (Staphylococcus aureus): > 64 mg/L
- MIC [1]: > 64 mg/L
- MIC (Escherichia coli): 16 mg/L (≈ 60.2 µM)
- MIC (Enterobacter cloacae): 16 mg/L (≈ 60.2 µM)
- MIC (Klebsiella pneumoniae): 64 mg/L (≈ 241 µM)
- MIC (Pseudomonas aeruginosa): > 64 mg/L
- MIC (Salmonella enterica): 64 mg/L (≈ 241 µM)
- MIC (Acinetobacter baumannii [2]): 1 mg/L (≈ 3.76 µM)
- MIC (Acinetobacter baumannii [3]): ≤ 0.125 mg/L
- Activity (Acinetobacter baumannii [4]): Active
- Activity (Acinetobacter baumannii [5]): 30%
- Activity (HEK293 [6]): Non-Toxic
- Activity (HEK293 [7]): 17%
- hemolysis at 1 h, 8 ug/ml [8]: < 10%
- Activity (Erythrocyte): Non-Toxic
- fold change (FC) (Acinetobacter baumannii [9]): 2

Structure (SMILES): O=C(NNc1cccc(F)c1)c1ccc2ccccc2n1
- Activity (HEK293 [6]): Non-Toxic
- Activity (HEK293 [7]): 40%
- hemolysis at 1 h, 8 ug/ml [8]: < 10%
- hemolysis at 1 h, 32 ug/ml [10]: 20%

Structure (SMILES): O=C(O)c1cn(C2CC2)c2cc(N3CCNCC3)c(F)cc2c1=O [CIPROFLOXACIN]
- MIC (Bacillus anthracis): 1 mg/L (≈ 3.02 µM)
- MIC (Staphylococcus aureus): ≤ 0.063 mg/L
- MIC [1]: ≤ 0.063 mg/L
- MIC (Escherichia coli): ≤ 0.063 mg/L
- MIC (Klebsiella pneumoniae): ≤ 0.063 mg/L
- MIC (Salmonella enterica): ≤ 0.063 mg/L
- MIC (Acinetobacter baumannii [2]): 1 mg/L (≈ 3.02 µM)
- MIC (Acinetobacter baumannii [3]): 2 mg/L (≈ 6.04 µM)
- Activity (Acinetobacter baumannii [11]): Active
- Activity (Acinetobacter baumannii [12]): Active
- hemolysis at 1 h, 8 ug/ml [8]: < 10%
- Activity (Erythrocyte): Non-Toxic
- MIC (Acinetobacter baumannii [13]): 2 mg/L (≈ 6.04 µM)

Structure (SMILES): O=C(NNc1cccc(F)c1)c1ccc(F)cn1
- MIC (Bacillus anthracis): > 64 mg/L
- MIC (Staphylococcus aureus): > 64 mg/L
- MIC [1]: > 64 mg/L
- MIC (Escherichia coli): 64 mg/L (≈ 257 µM)
- MIC (Enterobacter cloacae): > 64 mg/L
- MIC (Klebsiella pneumoniae): > 64 mg/L
- MIC (Pseudomonas aeruginosa): > 64 mg/L
- MIC (Salmonella enterica): > 64 mg/L
- MIC (Acinetobacter baumannii [2]): 0.5 mg/L (≈ 2.01 µM)
- MIC (Acinetobacter baumannii [3]): 0.5 mg/L (≈ 2.01 µM)
- Activity (HEK293 [6]): Non-Toxic
- hemolysis at 1 h, 8 ug/ml [8]: < 10%
- Activity (Erythrocyte): Non-Toxic

Structure (SMILES): O=C(NNc1ccc(F)cc1)c1ccc(F)cn1
- MIC (Bacillus anthracis): > 64 mg/L
- MIC (Staphylococcus aureus): > 64 mg/L
- MIC [1]: > 64 mg/L
- MIC (Escherichia coli): 64 mg/L (≈ 257 µM)
- MIC (Enterobacter cloacae): 64 mg/L (≈ 257 µM)
- MIC (Klebsiella pneumoniae): 64 mg/L (≈ 257 µM)
- MIC (Pseudomonas aeruginosa): > 64 mg/L
- MIC (Salmonella enterica): 64 mg/L (≈ 257 µM)
- MIC (Acinetobacter baumannii [2]): 0.5 mg/L (≈ 2.01 µM)
- MIC (Acinetobacter baumannii [3]): 0.25 mg/L (≈ 1 µM)
- Activity (HEK293 [6]): Non-Toxic
- hemolysis at 1 h, 8 ug/ml [8]: < 10%
- Activity (Erythrocyte): Non-Toxic
